Literature values as cited in patent US20230312703A1, “Method of Treating Psoriasis with IL-23 Specific Antibody” (Janssen Biotech, Inc., priority 2022, published 2023).
“And” between values parts separate entries of the source, which are not always exact repeats. Equal values may be shown once. Read-outs that look alike come from different tables or passages of the source.

Assays:
[1] = tested on: participants with psoriasis; conditions: Week 16, VOYAGE 1 & 2
[2] = tested on: participants with psoriasis
[3] = tested on: participants with psoriasis; remark: listed apart in the source
[4] = tested on: participants with psoriasis; conditions: Week 16; VOYAGE 2
[5] = tested on: participants with psoriasis; conditions: ADVANCE (apremilast arm of cross-study comparison)
[6] = tested on: participants with psoriasis; conditions: Week 16; ESTEEM1
[7] = tested on: participants with psoriasis; conditions: Week 16; ESTEEM2

Compound	Proportion of participants who achieve an IGA score of 0 or 1 with ≥2 grade improvement from baseline (BSA 10-15%) [1] [% vs 9.1%]	Proportion of participants who achieve an Static Physician Global Assessment (sPGA) score of 0 or 1 with at least ≥2 grade improvement from baseline at Week 16 (BSA 2-15%) ([2]; DISCOVER 1 & 2 (guselkumab arm of cross-study comparison)) [%]	Proportion of participants who achieve an IGA score of 0 or 1 with ≥2 grade improvement from baseline (BSA 3-15%) ([2]; Week 16, DISCOVER 1 & 2, BSA 3-15%) [% vs 12.2%]	Proportion of participants who achieve an IGA score of clear (0) at Week 16 (BSA >=10%) ([3]; VOYAGE 1, BSA >=10%) [% vs 1.1%]	Change in PSSD Symptom score from baseline: Mean (SD) ([3]; Week 16, VOYAGE 1)	Percent improvement in NAPSI score from baseline: Mean (SD) ([3]; Week 16, VOYAGE 1)	Proportion of participants who achieve a PASI 90 response ([3]; Week 16, VOYAGE 1)	Proportion of participants who achieve a PASI 100 response ([3]; Week 16, VOYAGE 1) [% vs 0.6%]	Proportion of participants who achieve a ss-IGA score of 0 or 1 with ≥2-grade improvement from baseline among randomized participants with scalp psoriasis and an ss-IGA score ≥2 at baseline ([3]; Week 16, VOYAGE 1)	Proportion of participants with ≥4-point reduction (improvement) in PSSD Itch score from baseline among participants with a PSSD Itch score ≥4 at baseline ([3]; Week 16, VOYAGE 1) [% vs 5.7%]	Proportion of participants who achieve a PASI 90 response [4] [% vs 2.4%]	Proportion of participants who achieve an Static Physician Global Assessment (sPGA) score of 0 or 1 with at least ≥2 grade improvement from baseline at Week 16 (BSA 2-15%) [5] [%]	Proportion of participants who achieve a PASI 90 response [6] [%]	Proportion of participants who achieve a ss-IGA score of 0 or 1 with ≥2-grade improvement from baseline among randomized participants with scalp psoriasis and an ss-IGA score ≥2 at baseline [6] [%]	Proportion of participants who achieve a PASI 90 response [7] [%]
Guselkumab: fully human IgG1 lambda monoclonal antibody that binds the p19 subunit of human IL-23; heavy chain SEQ ID NO: 9, light chain SEQ ID NO: 10	82.9	55.7	55.7	47.7	−41.9 (24.61) vs	34.37 (42.448) vs Percent	73.3% vs 2.9% and 73.3%	37.4	83.4% vs 14.5% and 83.4%	75.0	70.0	–	–	–	–
CCOc1cc([C@@H](CS(C)(=O)=O)N2C(=O)c3cccc(NC(C)=O)c3C2=O)ccc1OC [Apremilast]	–	–	–	–	–	–	–	–	–	–	–	21.6	9.8	46.5	8.8
